The numbers were not newly measured in US10709666B2, “Carrier particles for dry powder formulations for inhalation” (CHIESI FARMACEUTICI S.P.A., priority 2017, dated 2020), which cites them from elsewhere.

For the series the following is noted: room temperature.

On to `OC[C@@H](O)[C@@H](O)[C@H](O)[C@H](O)CO` [mannitol], for which the “saturated concentration in water” value is 18-21 % w/v.
On to `O.OC[C@H]1O[C@@H](O[C@H]2[C@H](O)[C@@H](O)[C@@H](O)O[C@@H]2CO)[C@H](O)[C@@H](O)[C@H]1O` [alpha-lactose monohydrate], for which the “saturated concentration in water” value is recorded as 18-19 % w/v.
